Measurements published in patent US7977284B2, “Non-estrogenic alkylphenol derivatives” (Oil Chem Technologies, Inc, priority 2009, dated 2011).

Assays:
estrogenicity = details: Jobling and Sumpter 1993; cited from earlier work
[1] = system: vitellogenin gene expression in trout hepatocytes; experiment: Relative estrogenicity compared to estradiol; standard test procedure and stimulation of vitellogenin gene expression in trout hepatocytes; details: for Relative Estrogenicity: compared to estradiol, assigned an estrogenicity value of unity; for estrogenicity (result in words): standard test procedure, vitellogenin gene expression in trout hepatocytes

Row | Compound | times less estrogenic compared to Estradiol (estrogenicity) | Relative Estrogenicity [1] | estrogenicity (result in words) [1]
1 | CC(C)(C)c1ccc(O)cc1 [4-t-butylphenol] | 1,100 times |  | 
2 | CC(C)(C)CC(C)(C)c1ccc(O)cc1 [4-t-octylphenol] | 1,200 times | 0.00037 | relatively high estrogenicity
3 | C[C@]12CC[C@@H]3c4ccc(O)cc4CC[C@H]3[C@@H]1CC[C@@H]2O [Estradiol] |  | 1 | 
4 | nonylphenol | 9,000 times | 0.000111 | relatively high estrogenicity
